Laboratory results published in patent publication US11661437B2, “Steroid derivative regulators, method for preparing the same, and uses thereof” (priority 2018, dated 2023).

Assays:
GABA-A receptor = assay: 35S-TBPS binding assay on rat cerebral cortex cell membrane; parameters: species or system Sprague-Dawley rat; conditions: 2 nM 35S-TBPS, GABA added, read-out: 35S-TBPS bindng test, IC50 on inhibiting the TBPS binding activity
Experimental: 1.2.1 Extraction of Cerebral Cortex Cell Membrane:
1. The cerebral cortex of male Sprague-Dawley rat was isolated.
2. A pre-chilled 0.32 M sucrose solution (one tablet of protease inhibitor was added per 100 ml) was added to the cerebral cortex (the volume of sucrose solution was 10 times the volume of the cerebral cortex). The mixture was crushed with a 50 ml glass tissue homogenizer in batches and mixed well.
3. The mixture was centrifuged at 1500 g, 4° C. for 10 minutes, and the supernatant was collected.
4. The mixture was centrifuged at 20000 g, 4° C. for 30 minutes, and the supernatant was discarded.
5. The precipitate was resuspended with the pre-chilled phosphate buffer saline (PBS) (one tablet of protease inhibitor was added per 100 ml). An average of 4 ml of PBS was added per rat, and the mixture was mixed well with a glass tissue homogenizer.
6. The mixture was centrifuged at 10000 g, 4° C. for 10 minutes, and the supernatant was discarded.
7. Steps 5 and 6 were repeated three times.
8. Finally, the precipitate was resuspended with 4 volumes of PBS. The resulting solution was dispensed, frozen in liquid nitrogen, and stored at −80° C.
9. The protein concentration was measured by the bicinchoninic acid (BCA) method.
1.2.2 ^35S-TBPS Binding Assay
1. 230 μL of PBS was added to each well of a well plate with 1.1 ml volume.
2. 60 μL of the cerebral cortex cell membrane (5 μg/μL) solution was added to each well, and the mixture was mixed well.
3. The test compound (3 μL per well) was added, and the plate was incubated at 25° C. for 5 minutes. The DMSO concentration was 1%. The initial compound concentration was 1 NM, and a 3-fold dilution in gradient was carried out to obtain a total of 8 gradients and 2 replicates. 1% DMSO was used as a negative control, and 10 μM P026-2 was used as a positive control.
4. GABA was added at a final concentration of […], and incubated at 25° C. for 5 minutes. 1 mM GABA solution was formulated, and 1.5 μL of the solution was added to each well.
5. ^35S-TBPS was added at a final concentration of 2 nM. The concentration of isotope mother solution was 9.7 μM. After dilution with PBS for 100 times, 6 μL of the diluted isotope solution was added to each well.
6. The plate was incubated at 4° C. for 20 hours.
7. The FilterMate GF/C plate was pre-treated with 0.5% PEI, and incubated at 4° C. for 1 hour.
8. The FilterMate GF/C plate was washed with Universal Harvester twice, 50 ml PBS each time.
9. The reaction solution was transferred to the GF/C plate, and each well was washed 4 times with 900 μL PBS.
10. The washed GF/C plate was placed at 55° C. and dried for 10 minutes.
11. 40 μL of scintillation solution was added to each well, and the CPM value was read with TopCount.
1.2.3 Experimental Data Processing Method:
In the experiment, the CPM (counts per minute) value was read with TopCount. According to the readings of the High control (DMSO) and the Low control (10 μM of the positive compound) experimental groups, the % inhibition was calculated based on the following formula: % Inhibition=100×(CPMHigh control−CPMSample)/(CPMHigh control−CPMLow control)
The IC50 of the compound was calculated according to the following 4-parameter nonlinear logic formula: Y=Bottom+(Top−Bottom)/(1+10^((Log IC50−X)*Hill Slope)),
The effect of the compound of the present invention on the TBPS binding activity was determined by the above test, and the measured IC50 values are shown in Table 1.

[1] = Pharmacokinetic assay in Balb/c mice (plasma and brain tissue); assay type: in vivo; conditions: male, Balb/c, mouse, in vivo, po, 5 mg/kg; for MRT: Mean residence time MRT; for Cmax: Plasma concentration Cmax; for AUC(0-t): Area under curve AUC0-t; for AUC(0-inf): Area under curve AUC0-∞; for half-life: Half-life t1/2
Experimental: Balb/c mice were used as test animals. The pharmacokinetic behavior in mice (plasma and brain tissue) of the compounds of Example 2, Example 5, Example 7, Example 12, Example 18, Example 23, Example 26, Example 38, Example 41, Example 50, Example 51 and Example 66 orally administrated at a dose of 5 mg/kg was studied.
Each group had 24 male Balb/c mice. After an overnight fast, Balb/c mice were administrated p.o. with the test compound at an administration dose of 5 mg/kg and an administration volume of 10 mL/kg.
0.2 ml of blood was taken from the heart before administration and at 0, 0.5, 1, 2, 4, 6, 8 and 24 hours after administration. The samples were stored in EDTA-K2 tubes, and centrifuged for 6 minutes at 4° C., 6000 rpm to separate the plasma. The plasma samples were stored at −80° C. The mice were sacrificed with CO2, and the whole brain tissue was taken out, weighed, placed in a 2 mL centrifuge tube and stored at −80° C.
1) 160 μL of acetonitrile was added to 40 μL of the plasma sample for precipitation, and then the mixture was centrifuged for 5-20 minutes at 3500×g.
2) 90 μL of acetonitrile containing the internal standard (100 ng/mL) was added to 30 μL of the plasma and brain homogenate samples for precipitation, and then the mixture was centrifuged for 8 minutes at 13000 rpm.
3) 70 μL of the treated supernatant was taken and added to 70 μL of water, and mixed by vortex for 10 minutes. 20 μL of the mixture was taken to analyze the concentration of the test compound by LC/MS/MS. LC/MS/MS analysis instrument: AB Sciex API 4000 Qtrap.
2.6 Liquid Chromatography Analysis • Liquid chromatography condition: Shimadzu LC-20AD pump. • Chromatographic column: Agilent ZORBAX XDB-C18 (50×2.1 mm, 3.5 μm); Mobile phase: Eluent A was 0.1% formic acid in water, and Eluent B was acetonitrile. • Flow rate: 0.4 mL/min • Elution time: 0-4.0 minutes the eluent is as follows:
The main parameters of pharmacokinetics were calculated by WinNonlin 6.1.

ICR mice = assay: In vivo pharmacodynamic test in the forced swimming model in mice; conditions: 10 mpk p.o.
Experimental: The antidepressant effect of the compound was evaluated by the forced swimming model in mice.
Male ICR mice (25-35 g) were adapted in the test environment for 3 days before the forced swimming test.
According to the test design, the mice were randomly grouped on the day before the test according to body weight, with 12 mice in each group. Before the test, the compounds of each example were administrated intragastrically according to the Tmax thereof in the brain in mice pharmacokinetic test as follows:
1) Model group (0.5% CMC-Na+1% Tween 80 solution, p.o., 10 mL/kg);
2) Compounds of Example 2, Example 5, Example 7, Example 18, Example 23, Example 26 and Example 50 (10 mg/kg, p.o., 10 mL/kg).
When being administrated, the compounds of each example were suspended in 0.5% CMC-Na-1% Tween 80 solution to the desired concentration.
0.5-1 hour after administration, ICR mice were placed in a forced swimming device (transparent glass drum (water depth 18 cm, water temperature 25-26° C.), one mouse per tank) and forced to swim for 6 minutes. The forced swimming device recorded the floating time of the ICR mice during the entire 6 minutes, and the data of the latter four minutes were used for data analysis. The mice were taken out immediately after the swimming test, wiped dry and put back in their original cages.
Note: The criterion for determining the immobility time is that the mouse stops struggling in water and floats, and there are only slight limb movements to keep the head floating on the water.
3.4 Data Analysis Floating time percentage=100*floating time/240 s.

## Cc1nnn(CC(=O)[C@H]2CC[C@H]3[C@@H]4CC[C@@H]5C[C@](C)(O)CC[C@]5(F)[C@H]4CC[C@]23C)n1 [Example 41, 1-((3R,5R,8S,9S,10R,13S,14S,17S)-10-Fluoro-3-hydroxy-3,13-dimethylhexadecahydro-1H-cyclopenta[a]phenanthren-17-yl)-2-(5-methyl-2H-tetrazol-2-yl)ethan-1-one]
GABA-A receptor
  IC50: 0.0136 µM
[1]
  Mean residence time MRT: 0.91 h
  Plasma concentration Cmax: 625.3 ng/mL
  Tmax: 0.5 h
  MRT: 0.94 h
  Cmax: 1230 ng/mL

## C[C@@]1(O)CC[C@@]2(F)[C@H](CC[C@H]3[C@@H]4CC[C@H](C(=O)Cn5cc(C(F)(F)F)cn5)[C@@]4(C)CC[C@@H]32)C1 [Example 7, 1-((3R,5R,8S,9S,10R,13S,14S,17S)-10-Fluoro-3-hydroxy-3,13-dimethylhexadecahydro-1H-cyclopenta[a]phenanthren-17-yl)-2-(4-(trifluoromethyl)-1H-pyrazol-1-yl)ethan-1-one]
GABA-A receptor
  IC50: 0.0124 µM
[1]
  Area under curve AUC0-t: 5106.0 ng·h/mL
  Area under curve AUC0-∞: 5514.3 ng·h/mL
  Half-life t1/2: 1.89 h
  Mean residence time MRT: 3.37 h
  Plasma concentration Cmax: 1263.3 ng/mL
  AUC(0-t): 3780 ng·h/mL
  AUC(0-inf): 3780 ng·h/mL
  half-life: 1.73 h
  MRT: 3.67 h
  Cmax: 888 ng/mL
[1]; Peak time tmax
  Tmax: 1 h
ICR mice; floating time percentage = 100*floating time/240 s
  Mean (immobility, %): 58.99%
ICR mice; latter four minutes of 6 min swim
  Mean (immobility, s): 141.58 s

## Cc1nn(CC(=O)[C@H]2CC[C@H]3[C@@H]4CC[C@@H]5C[C@](C)(O)CC[C@]5(F)[C@H]4CC[C@]23C)cc1C#N [Example 38, 1-(2-((3R,5R,8S,9S,10R,13S,14S,17S)-10-Fluoro-3-hydroxy-3,13-dimethylhexadecahydro-1H-cyclopenta[a]phenanthren-17-yl)-2-oxoethyl)-3-methyl-1H-pyrazole-4-carbonitrile]
GABA-A receptor
  IC50: 0.034 µM
[1]
  Area under curve AUC0-t: 1216.1 ng·h/mL
  Area under curve AUC0-∞: 1230.2 ng·h/mL
  Half-life t1/2: 1.14 h
  Mean residence time MRT: 1.6 h
  Plasma concentration Cmax: 746.7 ng/mL
  AUC(0-t): 1950 ng·h/mL
  AUC(0-inf): 1970 ng·h/mL
  half-life: 1.08 h
  MRT: 1.7 h
  Cmax: 1110 ng/mL
[1]; Peak time tmax
  Tmax: 0.5 h

## C[C@@]1(O)CC[C@@]2(F)[C@H](CC[C@H]3[C@@H]4CC[C@H](C(=O)COc5cnc(C(F)(F)F)nc5)[C@@]4(C)CC[C@@H]32)C1 [Example 66, 1-((3R,5R,8S,9S,10R,13S,14S,17S)-10-Fluoro-3-hydroxy-3,13-dimethylhexadecahydro-1H-cyclopenta[a]phenanthren-17-yl)-2-((2-(trifluoromethyl)pyrimidin-5-yl)oxy)ethan-1-one]
GABA-A receptor
  IC50: 0.027 µM
[1]
  Half-life t1/2: 3.60 h
  Mean residence time MRT: 5.01 h
  Tmax: 1 h
  half-life: 4.39 h
  MRT: 5.54 h
[1]; Peak time tmax
  Tmax: 0.5 h

## C[C@@]1(O)CC[C@]2(F)C3CC[C@]4(C)[C@@H](C(=O)Cn5cc(C#N)c(Cl)n5)CC[C@H]4[C@@H]3CC[C@@H]2C1 (stereo partly drawn) [Example 51, 3-Chloro-1-(2-((3R,5R,8S,10R,13S,14S,17S)-10-fluoro-3-hydroxy-3,13-dimethylhexadecahydro-1H-cyclopenta[a]phenanthren-17-yl)-2-oxoethyl)-1H-pyrazole-4-carbonitrile]
GABA-A receptor
  IC50: 0.0143 µM
[1]
  Area under curve AUC0-t: 1625.9 ng·h/mL
  Area under curve AUC0-∞: 1796.0 ng·h/mL
  Half-life t1/2: 2.19 h
  Mean residence time MRT: 3.28 h
  Plasma concentration Cmax: 512.3 ng/mL
  Tmax: 1 h
  AUC(0-t): 1960 ng·h/mL
  AUC(0-inf): 2080 ng·h/mL
  half-life: 1.93 h
  MRT: 2.65 h
  Cmax: 711 ng/mL
[1]; Peak time tmax
  Tmax: 0.5 h

## C[C@@]1(O)CC[C@@]2(F)[C@H](CC[C@H]3[C@@H]4CC[C@H](C(=O)Cn5ncnn5)[C@@]4(C)CC[C@@H]32)C1 [Example 12, 1-((3R,5R,8S,9S,10R,13S,14S,17S)-10-Fluoro-3-hydroxy-3,13-dimethylhexadecahydro-1H-cyclopenta[a]phenanthren-17-yl)-2-(2H-tetrazol-2-yl)ethan-1-one]
GABA-A receptor
  IC50: 0.0135 µM
[1]
  Mean residence time MRT: 0.73 h
  Tmax: 0.5 h
  MRT: 0.86 h
